Test results published in the Kinase Knowledgebase extract (Sharma et al. 2016).

Molecular target: CDK2 (UniProt P24941)
Assay: Enzyme Assay
Conditions: for inhibition: concentration not given here

| Compound | inhibition [%] | Ki [nM] |
| --- | --- | --- |
| CC(C)NC(=O)c1ccc(Nc2nc(N)c(C(=O)c3c(F)cccc3F)s2)cc1 | -10 | – |
| Cc1ccc(CCNC(=O)c2ccc(Nc3nc(N)c(C(=O)c4c(F)cccc4F)s3)cc2)cc1 | 14 | – |
| Cc1cccc(N2CCN(C(=O)c3ccc(Nc4nc(N)c(C(=O)c5c(F)cccc5F)s4)cc3)CC2C)c1 (stereo unspecified) | -23 | – |
| CC[C@H](C)[C@@H](CO)NC(=O)c1ccc(Nc2nc(N)c(C(=O)c3c(F)cccc3F)s2)cc1 | -7 | – |
| C=CCN(C(=O)c1ccc(Nc2nc(N)c(C(=O)c3c(F)cccc3F)s2)cc1)C1CCCCC1 | -15 | – |
| CC(C)N(Cc1ccccc1)c1ccc(NC(=O)c2ccc(Nc3nc(N)c(C(=O)c4c(F)cccc4F)s3)cc2)cc1 | -4 | – |
| CN(Cc1ccccc1)C(=O)c1ccc(Nc2nc(N)c(C(=O)c3c(F)cccc3F)s2)cc1 | -1 | – |
| COCCN(C)C(=O)c1ccc(Nc2nc(N)c(C(=O)c3c(F)cccc3F)s2)cc1 | -16 | – |
| CCOc1cccc(NC(=O)c2ccc(Nc3nc(N)c(C(=O)c4c(F)cccc4F)s3)cc2)c1 | -7 | – |
| CN(Cc1ccncc1)C(=O)c1ccc(Nc2nc(N)c(C(=O)c3c(F)cccc3F)s2)cc1 | 1 | – |
| CCN(CCO)C(=O)c1ccc(Nc2nc(N)c(C(=O)c3c(F)cccc3F)s2)cc1 | -16 | – |
| Nc1nc(Nc2ccc(C(=O)NCC(O)CO)cc2)sc1C(=O)c1c(F)cccc1F (stereo unspecified) | -2 | – |
| Nc1nc(Nc2ccc(C(=O)NC3CC3)cc2)sc1C(=O)c1c(F)cccc1F | -5 | – |
| Nc1nc(Nc2ccc(C(=O)N3CCC(CO)CC3)cc2)sc1C(=O)c1c(F)cccc1F | -14 | – |
| Nc1nc(Nc2ccc(C(=O)NCCc3ccccc3)cc2)sc1C(=O)c1c(F)cccc1F | -19 | – |
| Cc1ccc(O)c(NC(=O)c2ccc(Nc3nc(N)c(C(=O)c4c(F)cccc4F)s3)cc2)c1 | -6 | – |
| CCCCN(CCC#N)C(=O)c1ccc(Nc2nc(N)c(C(=O)c3c(F)cccc3F)s2)cc1 | 4 | – |
| CC(=O)N(C)C1CCN(C(=O)c2ccc(Nc3nc(N)c(C(=O)c4c(F)cccc4F)s3)cc2)C1 (stereo unspecified) | -21 | – |
| CCCN(CCC#N)C(=O)c1ccc(Nc2nc(N)c(C(=O)c3c(F)cccc3F)s2)cc1 | -12 | – |
| Cc1ccc(NC(=O)c2ccc(Nc3nc(N)c(C(=O)c4c(F)cccc4F)s3)cc2)cc1Cl | -1 | – |

Other lines, results leading:

| inhibition [%] | Ki [nM] | Compound |
| --- | --- | --- |
| -27 | – | CCN(CC)CCCN(C)C(=O)c1ccc(Nc2nc(N)c(C(=O)c3c(F)cccc3F)s2)cc1 |
| 0 | – | CC(C)CCCC(C)NC(=O)c1ccc(Nc2nc(N)c(C(=O)c3c(F)cccc3F)s2)cc1 (stereo unspecified) |
| -5 | – | CC(=O)c1ccc(NC(=O)c2ccc(Nc3nc(N)c(C(=O)c4c(F)cccc4F)s3)cc2)cc1 |
| -11 | – | CC1CC(NC(=O)c2ccc(Nc3nc(N)c(C(=O)c4c(F)cccc4F)s3)cc2)CC(C)(C)C1 (stereo unspecified) |
| 0 | – | C#CCCN(C)C(=O)c1ccc(Nc2nc(N)c(C(=O)c3c(F)cccc3F)s2)cc1 |
| 0 | – | CC(=O)Nc1ccccc1C(=O)c1sc(Nc2ccc(C(=O)NC[C@@H]3CCCN3C)cc2)nc1N |
| -12 | – | Nc1nc(Nc2ccc(C(=O)NCCCCO)cc2)sc1C(=O)c1c(F)cccc1F |
| -21 | – | Nc1nc(Nc2ccc(C(=O)NCCc3c(Cl)cccc3Cl)cc2)sc1C(=O)c1c(F)cccc1F |
| 13 | – | Nc1nc(Nc2ccc(C(=O)Nc3ccc4ncsc4c3)cc2)sc1C(=O)c1c(F)cccc1F |
| – | 25 | N#CCc1ccc(CNC(=O)c2ccc(Nc3nc(N)c(C(=O)c4c(F)cccc4F)s3)cc2)cc1 |
| -14 | – | Nc1nc(Nc2ccc(C(=O)N[C@H](CO)Cc3ccccc3)cc2)sc1C(=O)c1c(F)cccc1F |
| -2 | – | C=C(C)CN(C)C(=O)c1ccc(Nc2nc(N)c(C(=O)c3c(F)cccc3F)s2)cc1 |
| -6 | – | C=CCN(C)C(=O)c1ccc(Nc2nc(N)c(C(=O)c3c(F)cccc3F)s2)cc1 |
| -25 | – | CSc1ccc(NC(=O)c2ccc(Nc3nc(N)c(C(=O)c4c(F)cccc4F)s3)cc2)cc1 |
| -3 | – | Nc1nc(Nc2ccc(C(=O)N3CCSC3)cc2)sc1C(=O)c1c(F)cccc1F |
| -20 | – | C=CCN(CC=C)C(=O)c1ccc(Nc2nc(N)c(C(=O)c3c(F)cccc3F)s2)cc1 |
